# Measured values reported in patent US10206399B2, “Herbicidal composition comprising uracil compound as active ingredient” (Dongbu Farm Hannong Co., Ltd., priority 2012, dated 2019).
# Like-named read-outs stand apart in the source and are kept apart here.
# Key:
# [1] = test system: Alopecurus aequalis; assay: Dry field farming herbicidal composition test, plant mortality; format: in vivo; conditions: in % (unit assumed)
# Description: (§1) X is % damage by uracil compound (a) of formula 1 at the rate of application of p kg/ha; Y is % damage by conventional herbicidal compound (b) at the rate of application of q kg/ha; and E is the expected damage caused by compounds (a) and (b) at a rate of application of p and q kg/ha.
# (§2) The expected activity for a given combination of two herbicides can be calculated using equation 1 above.
# [2] = test system: Porippa islandica; assay: as above; format: in vivo
# Description: as §1, §2
# [3] = test system: Capsella bursapastoris; assay: as above; format: in vivo; conditions: in % (unit assumed)
# Description: as §1, §2
# [4] = test system: Lamium amplexicaule; assay: as above; format: in vivo; conditions: in % (unit assumed)
# Description: as §1, §2
# [5] = test system: Echinochloa crus; assay: as above; format: in vivo
# Description: as §1, §2
# [6] = test system: Digitaria sanguinalis; assay: as above; format: in vivo
# Description: as §1, §2
# [7] = test system: Abutilon theophrasti; assay: as above; format: in vivo
# Description: as §1, §2
# [8] = test system: Aeschynomene indica; assay: as above; format: in vivo
# Description: as §1, §2
# [9] = test system: Monochoria vaginalis; assay: Paddy field farming herbicidal composition test, plant mortality; format: in vivo; conditions: Pontederia vaginalis, read-out: Monochoria vaginalis mortality (measured value)
# Description: as §1, §2
# [10] = test system: Ludwigia prostrate; assay: as above; format: in vivo
# Description: as §1, §2
# [11] = test system: corn
# [12] = test system: wheat; assay: Dry field farming herbicidal composition test, plant mortality (crop)
# Description: as §1, §2
# [13] = test system: rice plant; assay: Paddy field farming herbicidal composition test, plant mortality (crop)
# Description: as §1, §2
# [14] = Echinochloa, read-out: Echinochloa crus mortality, measured value
# [15] = Digitaria sanguinalis, read-out: Digitaria sanguinalis mortality, measured value
# [16] = Abutilon theophrasti, read-out: Abutilon theophrasti mortality, measured value
# [17] = Aeschynomene indica, read-out: Aeschynomene indica mortality, measured value
structure (smiles),measurement,setting,value
Cc1nn(-c2cc(CC(Cl)C(=O)O)c(Cl)cc2F)c(=O)n1C(F)F (stereo not shown) [Carfentrazone],"Alopecurus aequalis mortality, measured value",[1]; 1 g/ha,0
same,"Alopecurus aequalis mortality, measured value",[1]; 2 g/ha,0
same,"Alopecurus aequalis mortality, measured value",[1]; 4 g/ha,0
same,"Porippa islandica mortality, measured value",[2]; 1 g/ha,5
same,"Porippa islandica mortality, measured value",[2]; 2 g/ha,15
same,"Porippa islandica mortality, measured value",[2]; 4 g/ha,40
same,"Capsella bursapastoris mortality, measured value",[3]; 1 g/ha,0
same,"Capsella bursapastoris mortality, measured value",[3]; 2 g/ha,15
same,"Capsella bursapastoris mortality, measured value",[3]; 4 g/ha,35
same,"Lamium amplexicaule mortality, measured value",[4]; 1 g/ha,5
same,"Lamium amplexicaule mortality, measured value",[4]; 2 g/ha,20
same,"Lamium amplexicaule mortality, measured value",[4]; 4 g/ha,40
same,"Echinochloa crus mortality, measured value",[5]; 1 g/ha,0
same,"Echinochloa crus mortality, measured value",[5]; 2 g/ha,0
same,"Echinochloa crus mortality, measured value",[5]; 4 g/ha,0
same,pest or weed control at 5 g/ha,[5]; [14],0%
same,pest or weed control at 10 g/ha,[5]; [14],5%
same,"Digitaria sanguinalis mortality, measured value",[6]; 1 g/ha,0
same,"Digitaria sanguinalis mortality, measured value",[6]; 2 g/ha,0
same,"Digitaria sanguinalis mortality, measured value",[6]; 4 g/ha,0
same,pest or weed control at 5 g/ha,[6]; [15],0%
same,pest or weed control at 10 g/ha,[6]; [15],5%
same,"Abutilon theophrasti mortality, measured value",[7]; 1 g/ha,10
same,"Abutilon theophrasti mortality, measured value",[7]; 2 g/ha,25
same,"Abutilon theophrasti mortality, measured value",[7]; 4 g/ha,45
same,pest or weed control at 5 g/ha,[7]; [16],50%
same,pest or weed control at 10 g/ha,[7]; [16],75%
same,"Aeschynomene indica mortality, measured value",[8]; 1 g/ha,5
same,"Aeschynomene indica mortality, measured value",[8]; 2 g/ha,20
same,"Aeschynomene indica mortality, measured value",[8]; 4 g/ha,40
same,pest or weed control at 5 g/ha,[8]; [17],45%
same,pest or weed control at 10 g/ha,[8]; [17],70%
same,pest or weed control at 5 g/ha,[9],20%
same,pest or weed control at 10 g/ha,[9],45%
same,Ludwigia prostrate mortality (measured value),[10]; 5 g/ha,35%
same,Ludwigia prostrate mortality (measured value),[10]; 10 g/ha,50%
same,Corn mortality (measured value),[11]; 1 g/ha,0
same,Corn mortality (measured value),[11]; 2 g/ha,0
same,Corn mortality (measured value),[11]; 4 g/ha,0
same,"Corn mortality, measured value",[11]; 5 g/ha,0
same,"Corn mortality, measured value",[11]; 10 g/ha,1
same,"Wheat mortality, measured value",[12]; 1 g/ha,0
same,"Wheat mortality, measured value",[12]; 2 g/ha,0
same,"Wheat mortality, measured value",[12]; 4 g/ha,0
same,Rice plant mortality (measured value),[13]; 5 g/ha,0
same,Rice plant mortality (measured value),[13]; 10 g/ha,0
